How the values were obtained:
Assay type in all cases: cell-based
[1] = system: CV-1, MGC80-3, HEK293T and HCT116 cells; assay: apoptosis determined by DAPI staining; details: 75 μM, 24 hr
Experimental: To determine the involvement of RXRα in sulindac sulfide-induced apoptosis of cancer cells, its effect on apoptosis of CV-1 cells (available from American Type Cell Culture, Manassas, Va., as accession number CCL-70) in the absence or presence of RXRα transfection was evaluated. FIG. 13a. RXR was cloned into a pGFP.C2 vector (GenBank Accession #: U19281) according to the procedure of Li et al., Science 289, 1159-1164 (2000). CV-1 cells were transfected with or without RXRα prior to treatment with sulindac sulfide (75.micro.M) for 24 hr. […] Louis, Mo., as catalogue number D9542), and the presence of nuclear fragmentation and/or chromatin condensation is an indicator of apoptosis. […] The requirement of RXRαwas also examined using RXRα siRNA SEQ ID No.: 12 approach. MGC80-3 cells, HEK293T (ATCC, accession number CCL-1573) and HCT116 (ATCC, accession number CCL-247) cell lines were transfected with RXRα siRNA or control siRNA using oligofectamine (from Invitrogen, Corp). Cell samples from each cell line were lysed and the cell extracts were prepared by immunoblotting to determine RXRα expression. Cells transfected with RXR.alpha siRNA or control siRNA were treated with sulindac sulfide (75.micro.M) for 24 hr, and apoptosis was determined by DAPI staining.

RXRα/IKK interaction = target: T1, RXRα/IKK interaction (Homo sapiens, UniProt P19793); assay: co-immunoprecipitation assay of RXRα with IKK; details: 6 hr
T1 construct: expressed in transfected cells; host or cells: HEK293T, pcDNA3 expression vectors
T1 sequence (Q9Y6K9 whole entry partner, one chain of several): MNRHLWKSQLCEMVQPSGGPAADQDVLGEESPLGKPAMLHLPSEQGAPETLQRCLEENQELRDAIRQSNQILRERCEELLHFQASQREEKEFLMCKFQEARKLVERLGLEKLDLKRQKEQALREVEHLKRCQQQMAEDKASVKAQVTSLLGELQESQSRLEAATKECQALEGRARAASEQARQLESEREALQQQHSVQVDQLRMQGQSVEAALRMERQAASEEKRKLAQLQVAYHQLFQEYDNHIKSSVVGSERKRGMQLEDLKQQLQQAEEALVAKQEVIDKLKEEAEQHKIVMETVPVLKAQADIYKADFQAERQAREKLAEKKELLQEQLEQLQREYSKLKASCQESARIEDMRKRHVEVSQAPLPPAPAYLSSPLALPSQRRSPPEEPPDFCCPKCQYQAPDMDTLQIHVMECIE
T1 sequence (O14920 whole entry partner, one chain of several): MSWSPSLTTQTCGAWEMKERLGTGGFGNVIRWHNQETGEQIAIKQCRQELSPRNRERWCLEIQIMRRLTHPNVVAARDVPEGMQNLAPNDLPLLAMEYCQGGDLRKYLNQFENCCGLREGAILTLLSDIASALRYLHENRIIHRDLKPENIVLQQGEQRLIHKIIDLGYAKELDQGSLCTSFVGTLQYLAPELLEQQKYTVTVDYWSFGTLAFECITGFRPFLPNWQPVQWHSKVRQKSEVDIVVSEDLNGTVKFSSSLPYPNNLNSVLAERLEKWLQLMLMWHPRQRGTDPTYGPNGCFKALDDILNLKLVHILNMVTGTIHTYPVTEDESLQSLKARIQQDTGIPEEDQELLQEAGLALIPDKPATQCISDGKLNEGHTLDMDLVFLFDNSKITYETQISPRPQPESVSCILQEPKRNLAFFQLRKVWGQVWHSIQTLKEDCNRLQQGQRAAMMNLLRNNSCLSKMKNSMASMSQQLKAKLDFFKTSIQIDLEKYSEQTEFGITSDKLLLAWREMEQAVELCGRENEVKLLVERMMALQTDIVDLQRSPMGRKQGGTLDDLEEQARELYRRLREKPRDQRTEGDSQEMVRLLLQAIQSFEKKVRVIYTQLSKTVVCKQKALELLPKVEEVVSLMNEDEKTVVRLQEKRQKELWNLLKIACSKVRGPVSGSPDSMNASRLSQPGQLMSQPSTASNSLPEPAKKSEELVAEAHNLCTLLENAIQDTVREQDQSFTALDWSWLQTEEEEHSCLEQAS
Description: IKK is composed of three subunits: IKKα and IKKβ, the catalytic subunits, and IKKγ, a regulatory subunit. IKK activation is required for NF-kB activation through its phosphorylation and degradation of IkB in response to proinflammatory stimuli. In addition, IKK also regulates cellular processes in a NF-kB-independent manner. We examined whether sulindac sulfide-induced cytoplasmic RXRα could interact with IKK. The indicated expression vector (pcDNA3 from Invitrogen, Corp) was transfected into HEK293T cells alone or together. After transfection, cells were treated with sulindac sulfide (75.micro.M) for 6 hr, and the interaction of RXRα and IKKβ was analyzed by co-immunoprecipitation assay. […] (FIG. 17a). The interaction was also illustrated by their cytoplasmic co-localization in cells treated with sulindac sulfide. (FIG. 17b). […] In this example, H460 cells were treated with or without sulindac sulfide (75.micro.M) for 6 hr, and cells were stained for RXRα and IKKβ (FIG. 17c). […] HA-IKKγ and Flag-RXRα expression vectors were transfected into HEK293T cells alone or together. After transfection, cells were treated with a new retinoid (BI419 (10^-6 M), 15d-PGJ2 (5.micro.M), or sulindac sulfide (75.micro.M) for 6 hr. The interaction of RXRα and IKKγ was studied by co-immunoprecipitation assay.

RXRα = target: T2, RXRα (Homo sapiens, UniProt P19793); assay: subcellular localization of RXRα by immunostaining / confocal microscopy
T2 sequence (P19793 1-462): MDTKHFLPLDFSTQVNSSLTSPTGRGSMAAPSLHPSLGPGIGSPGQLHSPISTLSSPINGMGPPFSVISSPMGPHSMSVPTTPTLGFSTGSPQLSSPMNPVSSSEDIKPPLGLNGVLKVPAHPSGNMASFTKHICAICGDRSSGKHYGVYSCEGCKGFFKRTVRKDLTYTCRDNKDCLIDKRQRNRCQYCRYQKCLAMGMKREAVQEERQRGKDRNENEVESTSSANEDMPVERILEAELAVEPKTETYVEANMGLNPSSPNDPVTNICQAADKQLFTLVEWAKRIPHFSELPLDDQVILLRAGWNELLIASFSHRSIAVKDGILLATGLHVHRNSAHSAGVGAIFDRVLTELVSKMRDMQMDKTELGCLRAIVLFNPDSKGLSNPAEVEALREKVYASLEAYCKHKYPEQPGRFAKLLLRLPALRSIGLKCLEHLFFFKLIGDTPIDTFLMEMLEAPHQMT
Experimental: Expression vector for Flag-RXRα was transfected into the indicated cell line. Cells were then treated with 15d-PGJ2 (5.micro.M) for 3 hr, then immunostained with anti-Flag antibody to detect RXRα Flag-RXRα was visualized by confocal microscopy.
Expression vectors for Flag-RXRα and GFP-TR3 were transfected into PC12 cells alone or together. Cells were then treated with 15d-PGJ2 (5.micro.M) for 3 hr, then immunostained with anti-Flag antibody to detect RXRα Flag-RXRα and GFP-TR3 were visualized by confocal microscopy, and their images merged.
Cos7 cells were transfected with GFP-RXRα and Mito-REP, and treated with or without 10^-4 M indomethacin or diclofenac for 4 hours. The distribution of GFP-RXRα and Mito-REP was visualized by confocal microscopy.
For example, cells such as LNCaP prostate cancer cells are induced to apoptosis using agents such as the phorbol ester, TPA (12-0-tetradecanolphorbol 13-acetate, Cell Signaling Technology Cat. No.: 9905).
For example, heat shock protein 60 (Hsp60) is a mitochondrial specific protein. […] The treated cells are then incubated with a conjugated secondary antibody and visualized using confocal microscopy. In this example, Cy-3 or FITC conjugated secondary antibodies were used for visualizing the sub-cellular localization of RXRα or Hsp60, respectively.
A GFP-RXRα expression vector was transfected into COS-7 cells and GFP-RXRα was expressed.
A fusion protein created by combining GFP and amino acids 348-398 of RXRα, is transfected into HEK293T cells.
To determine the role of 15d-PGJ2 binding on the new RXR pathway, a confocal microscopy analysis was performed to determine subcellular localization of RXRα in the presence or absence of 15d-PGJ2.
Because RXR heterodimerizes with TR3, Inventor examined the effect of 15d-PGJ2 on TR3 subcellular localization in PC12 phaeochromocytoma cells.
To determine the mechanism of RXRα mediated apoptosis in the presence of sulindac sulfide, Inventors examined the effect of sulindac sulfide on subcellular localization of RXRα

RARβ expression = assay: RARβ protein expression by Western analysis in cancer cells; details: sulindac sulfide 100 μM, 24 hr
Experimental: The indicated cancer cells were treated for 24 h with or without trans-RA (10^-6 M), or 15d-PGJ2 (5.micro.M) or their combination. RARβ protein expression was determined by Western analysis.
The effect of sulindac sulfide on RXR transactivation was investigated for its effect of RARβ induction by all-trans-retinoic acid (tRA), which activates the RA response element (βRARE) in the RARβ promoter through an RAR/RXR heterodimer. […] The βRARE could be also activated by an RXR/PPAR heterodimer. […] Cells were treated for 24 hr with or without with trans-RA (10^-6 M), or SR11237 (10^-6 M), ciglitazone (10.micro.M), sulindac sulfide (100.micro.M) or the indicated combinations. RARβ protein expression was determined by Western analysis.

In the case of `CSc1ccc(/C=C2/C(C)=C(CC(=O)O)c3cc(F)ccc32)cc1` [sulindac sulfide], the “apoptosis, cells transfected with RXRα” value ([1]; CV-1 cells, DAPI staining) is reported as “extensive apoptosis”, the “apoptosis in cells transfected with RXRα siRNA versus control siRNA” value ([1]; MGC80-3, HEK293T and HCT116 cells) is reported as “significant reduction of apoptosis” and the “interaction of RXRα with IKKγ” value (RXRα/IKK interaction; HEK293T cells, HA-IKKγ and Flag-RXRα, BI419 10^-6 M, 15d-PGJ2 5 μM, sulindac sulfide 75 μM) is reported as “further promoted”. The “interaction between RXRα and IKKβ” value (RXRα/IKK interaction; transfected HEK293T cells, 75 μM) was “extensive interaction”, the “endogenous RXRα localization” value (RXRα; Calu-6, H460, LNCaP, ZR-75-1, MGC80-3 and HEK293T cells, 75 μM, 6 hr) was “found mainly in the cytoplasm” and the RXRα mitochondrial localization (RXRα; H460, MGC80-3 and LNCaP cells, 75 μM, 6 hr) was “results in RXRα mitochondrial localization”. The “transfected RXRα localization” value (RXRα; HEK293T cells, sulindac sulfide) was “found in the cytoplasm”, the “inducing effect of tRA on RARβ” value (RARβ expression; ZR-75-1 and Calu-6 cells, trans-RA 10^-6 M) was “effectively suppressed” and the “activation of RXR/PPAR heterodimer by SR11237 and ciglitazone (RARβ expression)” value (RARβ expression; SR11237 10^-6 M, ciglitazone 10 μM) was “effectively inhibited”.
